Laboratory results taken from patent publication US20160289236A1, “Protein Kinase Inhibitors” (PHARMASCIENCE INC., priority 2013, published 2016).

Key:
[1] = biological target: T1, histidine tagged recombinant human full-length Bruton Agammaglobulinemia Tyrosine Kinase (Btk) (Homo sapiens, UniProt Q06187); assay: Btk kinase inhibition assay, Method A (fluorescence polarization, KinEASE FP Fluorescein Green); type: biochemical; settings: 10 μM ATP, 250 μM substrate, 60 minutes, Ki calculated from IC50 with Cheng-Prusoff equation
T1 construct: histidine tagged recombinant human full-length Bruton Agammaglobulinemia Tyrosine Kinase (Btk); His tag
T1 sequence (Q06187 whole entry): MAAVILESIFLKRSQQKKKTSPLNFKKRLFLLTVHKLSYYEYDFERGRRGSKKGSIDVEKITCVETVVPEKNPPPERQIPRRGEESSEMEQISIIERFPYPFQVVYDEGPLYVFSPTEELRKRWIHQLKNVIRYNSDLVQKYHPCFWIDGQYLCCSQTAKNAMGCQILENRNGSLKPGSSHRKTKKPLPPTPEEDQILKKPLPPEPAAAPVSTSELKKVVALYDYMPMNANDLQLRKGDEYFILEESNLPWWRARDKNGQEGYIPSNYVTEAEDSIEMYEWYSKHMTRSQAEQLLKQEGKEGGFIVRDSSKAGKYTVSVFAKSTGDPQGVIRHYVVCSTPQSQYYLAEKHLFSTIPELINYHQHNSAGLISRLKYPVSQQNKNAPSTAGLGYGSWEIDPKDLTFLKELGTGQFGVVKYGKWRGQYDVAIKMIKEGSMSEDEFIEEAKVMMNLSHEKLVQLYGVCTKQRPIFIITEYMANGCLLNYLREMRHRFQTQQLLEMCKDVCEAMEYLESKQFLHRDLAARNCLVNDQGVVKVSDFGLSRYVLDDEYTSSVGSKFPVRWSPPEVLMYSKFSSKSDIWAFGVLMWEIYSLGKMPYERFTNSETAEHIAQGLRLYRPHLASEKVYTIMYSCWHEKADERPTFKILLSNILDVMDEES
Protocol: Fluorescence polarization-based kinase assays were performed in 384 well-plate format using histidine tagged recombinant human full-length Bruton Agammaglobulinemia Tyrosine Kinase (Btk), and a modified protocol of the KinEASE™ FP Fluorescein Green Assay supplied from Millipore®. Kinase reaction were performed at room temperature for 60 minutes, in presence of 250 μM substrate, 10 μM ATP, and variable test article concentrations. The reaction was stopped with EDTA/kinease detection reagents. Phosphorylation of the substrate peptide was detected by fluorescence polarization, measured with a Tecan 500 instrument. From the dose-response curve obtained, the IC50 was calculated using Graph Pad Prisms®, using a non linear fit curve. The Km for ATP on each enzyme was experimentally determined and the Ki values calculated using the Cheng-Prusoff equation (see: Cheng Y, Prusoff W H. (1973) Relationship between the inhibition constant (K1), and the concentration of inhibitor which causes 50% inhibition (I50) of an enzymatic reaction”. Biochem Pharmacol 22 (23): 3099-108).

splenocytes = assay: Splenic cell proliferation assay (anti-IgM stimulated, Cell Titer-Glo); type: cell-based; settings: Splenocyte; CD1 mouse splenocytes, 2.5 ug/ml anti-IgM F(ab')2 for 72 h, 1 h compound pre-treatment; read-out: EC50 (nM), Inhibition of splenic cell proliferation
Protocol: Proliferation of splenocytes in response to anti-IgM can be blocked by inhibition of Btk. Splenocytes were obtained from 6 week old male CD1 mice (Charles River Laboratories Inc.). Mouse spleens were manually disrupted in PBS and filtered using a 70 um cell strainer followed by ammonium chloride red blood cell lysis. Cells were washed, resuspended in Splenocyte Medium (HyClone RPMI supplemented with 10% heat-inactivated FBS, 0.5× non-essential amino acids, 10 mM HEPES, 50 uM beta mercaptoethanol), and incubated at 37° C., 5% CO2 for 2 h, to remove adherent cells. Suspension cells were seeded in 96 well plates, at 50,000 cells per well, and incubated at 37° C., 5% CO2 for 1 h. Splenocytes were pre-treated in triplicate with 10,000 nM curves of Formula I, compounds for 1 h, followed by stimulation of cell proliferation with 2.5 ug/ml anti-IgM F(ab′)2 (Jackson Immuno Research) for 72 h. Cell proliferation was measured by Cell Titer-Glo Luminescent Assay (Promega). EC50 values (50% proliferation in the presence of compound, as compared to vehicle treated controls) were calculated from dose response compound curves using GraphPad Prism Software.

human BTK kinase (hBTK) = biological target: T2, human BTK kinase (hBTK) (Homo sapiens, UniProt Q06187); assay: Btk kinase inhibition assay, Method B (KinaseProfiler radiometric protein kinase assay, Eurofins); type: biochemical; settings: [γ-33P-ATP], 250 μM substrate, 40 minutes
T2 construct: purchased Eurofins Pharma Discovery Services UK Limited
T2 sequence (Q06187 whole entry): as above
Protocol: In vitro potency of selected compound was defined against human BTK kinase (hBTK) using KinaseProfiler radiometric protein kinase assays performed at Eurofins Pharma Discovery Services UK Limited.
hBTK kinase is diluted in buffer and all compounds were prepared to 50× final assay concentration in 100% DMSO. This working stock of the compound was added to the assay well as the first component in the reaction, followed by the remaining components as detailed in the assay protocol listed above. The reaction was initiated by the addition of the MgATP mix. The kinase reaction was performed at room temperature for 40 minutes, in presence of 250 μM substrate, 10 mM MgAcetate, [γ-33P-ATP] (specific activity approx. 500 cpm/pmol, concentration as required) and variable test article concentrations. The ATP concentrations in the assays were with 15 μM of the apparent. The reaction was stopped by the addition of 3% phosphoric acid solution. 10 μL of the reaction is then spotted onto a P30 filtermat and washed three times for 5 minutes in 75 mM phosphoric acid and once in methanol, prior to drying, and scintillation counting. […]

Row | Ki [1] [nM] | EC50 (human BTK kinase (hBTK)) [nM] | SMILES | EC50 (splenocytes) [nM]
1 | – | < 100 | Cc1ncc(COc2cc(F)cc(Oc3ccc(-n4cc([C@H]5C[C@@H](O)C5)c5ncnc(N)c54)cc3)c2)cn1 [Compound 11] | < 100
2 | < 100 | – | Cc1ncc(COc2cc(F)cc(Oc3ccc(-n4cc(C(C)C)c5ncnc(N)c54)cc3)c2)s1 [Compound 2] | < 100
3 | < 100 | – | Cc1ncc(COc2cc(F)cc(Oc3ccc(-n4cc(C(C)C)c5ncnc(N)c54)cc3)c2)cn1 [Compound 9] | < 100
4 | < 100 | – | Cc1ncc(COc2cc(F)cc(Oc3ccc(-n4cc(C5CCOCC5)c5ncnc(N)c54)cc3)c2)s1 [Compound 6] | < 100
5 | < 100 | – | Cc1ccc(COc2cc(F)cc(Oc3ccc(-n4cc(C(C)C)c5ncnc(N)c54)cc3)c2)cn1 [Compound 1] | < 100
6 | < 100 | – | Cc1ncc(COc2cc(F)cc(Oc3ccc(-n4cc(C5CCOCC5)c5ncnc(N)c54)cc3)c2)cn1 [Compound 7] | < 100

Further lines, the compound ahead of its results:

Row | SMILES | Ki [1] [nM] | EC50 (human BTK kinase (hBTK)) [nM] | EC50 (splenocytes) [nM]
7 | Cc1ccc(COc2cc(F)cc(Oc3ccc(-n4cc(C5CCOCC5)c5ncnc(N)c54)cc3)c2)cn1 [Compound 5] | < 100 | – | < 100
8 | Cc1ccc(COc2cc(F)cc(Oc3ccc(-n4cc(C5CCCC5)c5ncnc(N)c54)cc3)c2)cn1 [Compound 4] | – | – | < 100
9 | Cc1ncc(COc2cc(F)cc(Oc3ccc(-n4cc(C5CCCC5)c5ncnc(N)c54)cc3)c2)cn1 [Compound 8] | – | – | < 100
10 | Cc1ncc(COc2cc(F)cc(Oc3ccc(-n4cc(C5CC(CO)C5)c5ncnc(N)c54)cc3)c2)cn1 (stereo not drawn) [Compound 10] | – | – | < 100
11 | Cc1ncc(COc2cc(F)cc(Oc3ccc(-n4cc(C5CCCC5)c5ncnc(N)c54)cc3)c2)s1 [Compound 3] | – | – | < 100
